Source: patent US6002008A, “Substituted 3-cyano quinolines” (American Cyanamid Company, priority 1998, dated 1999)
One block for each compound: values may come before it.

Legend:
PC3 = test: Inhibition of cancer cell growth as measured by cell number; type: cell-based, human; conditions: PC3, 48 hours
Excerpt: (§1) The cell lines were chosen since they overexpressed epidermal growth factor receptor (EGFR) (i.e. A431) or HER2/neu (SKBR3), or had little to no expression of the these receptors (SW620, LOX, MCF7).

[1] = system: human epidermoid tumors (A431); test: In vivo inhibition of the growth of human epidermoid tumors (A431) in mice; design: species or system human tumor in BALB/c nu/nu female mice; conditions: for tumor growth was inhibited by: 100 mg/kg i.p. days 1-10
Description: Representative compounds of this invention (listed below) were evaluated in an in vivo standard pharmacological test procedure which measured its ability to inhibit the growth of human epidermoid tumors. […] BALB/c nu/nu female mice (Charles River, Wilmington, Mass.) were used in this in vivo standard pharmacological test procedure. […] When tumors attained a mass of between 100 and 150 mg, the mice were randomized into treatment groups (day zero). Mice were treated IP once a day either on days 1, 5, and 9 or on days 1 through 10 post staging with doses of either 80, 40 or 20 mg/kg/dose of the compound to be evaluated in 0.2% Klucel. Control animals received no drug. Tumor mass was determined every 7 days [(length X width^2)/2] for 28 days post staging. Relative tumor growth (Mean tumor mass on days 7, 14, 21, and 28 divided by the mean tumor mass on day zero) is determined for each treatment group.

SKBR3 = test: Inhibition of cancer cell growth as measured by cell number; type: cell-based, human; conditions: SKBR3, 48 hours, Table 8
Excerpt: as §1

[2] = target: gastric (H^+ /K^+)-ATPase (Sus scrofa, UniProt P19156); conditions: Ife R. J., et al., J. Med. Chem., 35(18), 3413 (1992); cited from earlier work
[3] = target: T1, Kinase insert Domain containing Receptor (KDR; the catalytic domain of the VEGF receptor) (Homo sapiens, UniProt P35968); test: Inhibition of Kinase insert Domain containing Receptor (KDR); type: biochemical
T1 construct: KDR; the catalytic domain of the VEGF receptor
Description: In this standard pharmacological test procedure, KDR protein is mixed, in the presence or absence of a inhibitor compound, with a substrate peptide to be phosphorylated (a copolymer of glutamic acid and tyrosine, E:Y::4:1) and other cofacters such as Mg^++ and sodium vanadate (a protein tyrosine phosphatase inhibitor) in an appropriate buffer to maintain pH (7.2). ATP and a radioactive tracer (either P^32 - or P^33 -labeled ATP) is then add to initiate phosphorylation. After incubation, the radioactive phosphate associated with the acid-insoluble fraction of the assay mixture is then qualified as reflection of substrate phosphorylation.

[4] = target: recombinant human MEK 1 (MAPKK) and recombinant human ERK2 (MAPK); test: Mitogen Activated Protein Kinase (MAPK) Assay, coupled MEK/ERK; type: biochemical; conditions: separate entries = evaluated more than once
Description: To evaluate inhibitors of the MAP (mitogen activated protein) kinase a two component coupled standard pharmacological test procedure, which measures phosphorylation of a serine/threonine residue in an appropriate sequence in the substrate in the presence and absence of a putative inhibitor, was used. Recombinant human MEK 1 (MAPKK) was first used to activate recombinant human ERK2 (MAPK) and the activated MAPK (ERK) was incubated with substrate (MBP peptide or MYC peptide) in the presence of ATP, Mg^+2 and radiolabeled ^33 P ATP. The phosphorylated peptide was captured on a P 81 phosphocellulose filter (paper filter or embedded in microtiter plate) washed and counted by scintillation methods.
The peptide substrates used in the assay are MBP, peptide substrate ([sequence]), or synthetic Myc substrate, ([sequence].cndot.5 TFA. The recombinant enzymes used were prepared as GST fusion proteins of human ERK 2 and human MEK 1. Inhibitor samples were prepared as 10× stocks in 10% DMSO and an appropriate aliquot was used to deliver either 10 ug/ml for a single point screening dose or 100, 10, 1, and 0.1 uM final concentration for a dose response curve. Final DMSO concentrations were less than or equal to 1%.
The reaction was run as follows in 50 mM Tris kinase buffer, pH 7.4 in a reaction volume of 50 ul. The appropriate volume of kinase buffer and inhibitor sample was added to the tube. Appropriate dilution of enzyme was delivered to give 2-5 ug recombinant MAPK (Erk) per tube. The inhibitor was incubated with MAPK (Erk) for min at 0 deg. […] Recombinant Mek (MAPKK) (0.5-2.5 ug) or fully activated Mek (0.05-0.1 units) was added to activate the Erk and incubated for 30 min at 30° C. […] Samples were incubated at 30° C. for 30 minutes and the reaction was stopped by adding 25 μl of ice cold 10% TCA After samples were chilled on ice for 30 min, 20 μl of sample was transferred onto P 81 phosphocellulose filter paper or appropriate MTP with embedded P 81 filter. Filter papers or MTP were washed 2 times with a large volume of 1% acetic acid, then 2 times with water. The filters or MTP were briefly air dried before addition of scintillant and samples were counted in the appropriate scintillation counter set up for reading ^33 P isotope.
The raw data was captured as cpm. Sample replicates were averaged and corrected for background count. Mean cpm data was tabulated by group and % inhibition by a test compound was calculated as (corrected cpm control-corrected. cpm sample/control)×100=% inhibition.

[5] = target: T2, Epidermal Growth Factor Receptor Kinase (His-tagged cytoplasmic domain of EGFR) (Homo sapiens, UniProt P00533); test: Inhibition of Epidermal Growth Factor Receptor Kinase (EGF-R) using recombinant enzyme; type: biochemical; conditions: average of number of tests, RR-SRC peptide
T2 construct: EGFR cDNA encoding amino acids 645-1186 preceded by Met-Ala-(His)6; made in house; host or cells: Sf9 insect cells, baculovirus vHcEGFR52
Description: Representative compounds of the invention were evaluated for their ability to inhibit the phosphorylation of the tyrosine residue of a peptide substrate catalyzed by the enzyme epidermal growth factor receptor kinase. […] The enzyme used in this assay is the His-tagged cytoplasmic domain of EGFR. A recombinant baculovirus (vHcEGFR52) was constructed containing the EGFR cDNA encoding amino acids 645-1186 preceded by Met-Ala-(His)6. Sf9 cells in 100 mm plates were infected at an moi of 10 pfu/cell and cells were harvested 48 h post infection. A cytoplasmic extract was prepared using 1% Triton X-100 and applied to Ni-NTA column. After washing the column with 20 mM imidazole, HcEGFR was eluted with 250 mM imidazole (in 50 mM NaHPO4, pH 8.0, 300 mM NaCl). […]
Compounds to be evaluated were made into 10 mg/mL stock solutions in 100% dimethylsulfoxide (DMSO). […]
For the enzyme reaction, 10 μL of each inhibitor (at various concentrations) were added to each well of a 96-well plate. […] The filter discs were washed 2× with 0.5% phosphoric acid and radioactivity was measured using a liquid scintillation counter.
The % inhibition of the test compound was determined for at least three different concentrations and the IC50 value was evaluated from the dose response curve. […]

HL60 = test: Inhibition of cancer cell growth as measured by cell number; type: cell-based, human; conditions: HL60, 48 hours
Excerpt: as §1

[6] = Table 10, 80 IP days 1, 5, 9, day 7
[7] = Table 10, 80 IP days 1, 5, 9, day 14
[8] = Table 10, 80 IP days 1, 5, 9, day 21
[9] = Table 10, 80 IP days 1, 5, 9, day 28
[10] = Table 10, 80 PO days 1-10, day 7
[11] = Table 10, 80 PO days 1-10, day 14
[12] = Table 10, 80 PO days 1-10, day 21
[13] = Table 10, 80 PO days 1-10, day 28
[14] = Table 11, 80 IP days 1, 5, 9, day 7
[15] = Table 11, 80 IP days 1, 5, 9, day 14
[16] = Table 11, 80 IP days 1, 5, 9, day 21
[17] = Table 11, 80 IP days 1, 5, 9, day 28
[18] = Table 11, 80 PO days 1-10, day 7
[19] = Table 11, 80 PO days 1-10, day 14
[20] = Table 11, 80 PO days 1-10, day 21
[21] = Table 11, 80 PO days 1-10, day 28

T1 sequence (P35968 834-1162 limits assumed): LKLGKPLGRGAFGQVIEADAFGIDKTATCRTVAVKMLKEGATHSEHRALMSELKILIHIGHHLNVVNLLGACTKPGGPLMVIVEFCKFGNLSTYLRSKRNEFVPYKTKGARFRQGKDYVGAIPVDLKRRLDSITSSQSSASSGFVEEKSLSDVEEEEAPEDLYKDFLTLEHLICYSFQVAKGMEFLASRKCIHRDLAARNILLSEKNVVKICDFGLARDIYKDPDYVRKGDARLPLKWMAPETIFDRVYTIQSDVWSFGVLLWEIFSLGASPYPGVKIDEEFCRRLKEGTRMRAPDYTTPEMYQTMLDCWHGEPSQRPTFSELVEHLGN
T2 sequence (P00533 669-1210): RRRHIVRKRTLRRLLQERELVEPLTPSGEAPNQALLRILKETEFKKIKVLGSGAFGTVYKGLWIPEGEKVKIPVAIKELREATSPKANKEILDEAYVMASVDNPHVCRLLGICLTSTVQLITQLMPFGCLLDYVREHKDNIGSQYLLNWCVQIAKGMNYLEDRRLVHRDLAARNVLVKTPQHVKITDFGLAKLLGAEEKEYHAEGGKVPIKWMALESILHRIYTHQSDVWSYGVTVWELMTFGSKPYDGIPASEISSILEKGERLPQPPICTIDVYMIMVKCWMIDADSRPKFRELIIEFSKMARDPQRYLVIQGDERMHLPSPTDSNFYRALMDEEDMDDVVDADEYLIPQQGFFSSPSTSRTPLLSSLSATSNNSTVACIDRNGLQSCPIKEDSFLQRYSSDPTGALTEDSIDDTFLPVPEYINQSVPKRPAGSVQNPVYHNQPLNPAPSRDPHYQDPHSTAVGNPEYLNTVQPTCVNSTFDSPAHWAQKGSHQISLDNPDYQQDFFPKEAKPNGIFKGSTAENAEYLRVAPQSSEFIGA
Sequence of gastric (H^+ /K^+)-ATPase (P19156 2-1034 limits assumed): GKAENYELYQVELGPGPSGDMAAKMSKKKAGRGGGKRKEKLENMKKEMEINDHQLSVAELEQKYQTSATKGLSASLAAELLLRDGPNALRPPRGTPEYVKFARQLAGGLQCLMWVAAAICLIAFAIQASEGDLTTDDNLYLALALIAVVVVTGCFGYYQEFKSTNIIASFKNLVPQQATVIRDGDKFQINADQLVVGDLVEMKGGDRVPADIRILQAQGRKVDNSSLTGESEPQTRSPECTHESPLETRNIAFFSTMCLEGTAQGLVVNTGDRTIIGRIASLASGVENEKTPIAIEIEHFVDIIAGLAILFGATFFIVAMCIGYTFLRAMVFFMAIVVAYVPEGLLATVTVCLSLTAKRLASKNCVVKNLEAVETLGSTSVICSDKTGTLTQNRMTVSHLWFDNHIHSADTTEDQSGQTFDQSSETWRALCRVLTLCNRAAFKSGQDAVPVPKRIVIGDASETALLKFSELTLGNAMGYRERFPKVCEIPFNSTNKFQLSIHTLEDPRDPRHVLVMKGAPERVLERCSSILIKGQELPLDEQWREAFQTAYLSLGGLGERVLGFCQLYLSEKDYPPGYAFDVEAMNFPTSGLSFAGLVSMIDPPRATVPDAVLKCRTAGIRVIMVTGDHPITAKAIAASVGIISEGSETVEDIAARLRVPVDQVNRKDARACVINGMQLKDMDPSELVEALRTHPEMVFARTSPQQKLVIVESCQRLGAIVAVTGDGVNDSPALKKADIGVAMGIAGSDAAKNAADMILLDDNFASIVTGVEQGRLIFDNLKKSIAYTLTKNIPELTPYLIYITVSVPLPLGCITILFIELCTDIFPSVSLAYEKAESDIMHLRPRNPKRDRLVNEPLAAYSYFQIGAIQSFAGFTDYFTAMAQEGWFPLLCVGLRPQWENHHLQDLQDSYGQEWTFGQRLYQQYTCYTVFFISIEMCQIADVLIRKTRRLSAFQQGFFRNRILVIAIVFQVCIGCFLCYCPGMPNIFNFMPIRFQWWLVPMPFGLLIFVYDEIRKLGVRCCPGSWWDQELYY
Sequence of gastric (H^+ /K^+)-ATPase (P18434 whole entry partner, the tested form may be a part): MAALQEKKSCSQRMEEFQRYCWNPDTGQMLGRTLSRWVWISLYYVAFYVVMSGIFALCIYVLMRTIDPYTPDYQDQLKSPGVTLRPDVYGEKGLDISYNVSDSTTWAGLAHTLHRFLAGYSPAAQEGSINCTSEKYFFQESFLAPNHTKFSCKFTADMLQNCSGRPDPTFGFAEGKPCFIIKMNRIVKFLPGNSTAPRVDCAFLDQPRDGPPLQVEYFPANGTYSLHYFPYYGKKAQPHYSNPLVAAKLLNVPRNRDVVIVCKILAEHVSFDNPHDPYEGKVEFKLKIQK

Inhibition of Cancer Cell Growth as Measured by Cell Number (IC50) (PC3): 0.11 µg/mL
Compound: CCOc1cc2ncc(C#N)c(Nc3cccc(Br)c3)c2cc1OCC [Example 47, 4-[(3-Bromophenyl)amino]-6,7-diethoxy-3-quinolinecarbonitrile]
% T/C ([1]; 40 mg/kg/dose IP days 1-10, day 7): 69%
% T/C ([1]; 40 mg/kg/dose IP days 1-10, day 14): 74%
% T/C ([1]; 40 mg/kg/dose IP days 1-10, day 21): 116%
% T/C ([1]; 40 mg/kg/dose IP days 1-10, day 28): 136%
% T/C ([1]; 50 mg/kg/dose IP days 1-10, day 7): 44%
% T/C ([1]; 50 mg/kg/dose IP days 1-10, day 14): 55%
% T/C ([1]; 50 mg/kg/dose IP days 1-10, day 21): 87%
% T/C ([1]; 50 mg/kg/dose IP days 1-10, day 28): 102%
tumor growth was inhibited by ([1]; day 7): 66%
tumor growth was inhibited by ([1]; day 14): 63%
tumor growth was inhibited by ([1]; day 21): 49%
tumor growth was inhibited by ([1]; day 28): 57%
% T/C ([1]; 100 mg/kg/dose IP days 1-10, day 7): 34%
% T/C ([1]; 100 mg/kg/dose IP days 1-10, day 14): 37%
% T/C ([1]; 100 mg/kg/dose IP days 1-10, day 21): 51%
% T/C ([1]; 100 mg/kg/dose IP days 1-10, day 28): 43%
Tumor growth inhibition, dose dependence ([1]; i.p. days 1-10): appeared to be dose dependent

Compound: CCN(CC)CC=CC(=O)Nc1cc2c(Nc3ccc(F)c(Cl)c3)c(C#N)cnc2cc1OC [Example 204, 4-Diethylamino-but-2-enoic acid [4-(3-chloro-4-fluoro-phenylamino)-3-cyano-7-methoxy-quinolin-6-yl]-amide]
% T/C [1, 6]: 45%
% T/C [1, 7]: 42%
% T/C [1, 8]: 55%
% T/C [1, 9]: 49%
% T/C [1, 10]: 25%
% T/C [1, 11]: 18%
% T/C [1, 12]: 43%
% T/C [1, 13]: 51%

Inhibition of Cancer Cell Growth as Measured by Cell Number (IC50) (SKBR3): 0.1 µg/mL
Compound: COc1cc2ncc(C#N)c(Nc3ccc(F)c(Cl)c3)c2cc1NC(=O)C=CCN(C)C [Example 203, 4-Dimethylamino-but-2-enoic acid [4-(3-chloro-4-fluoro-phenylamino)-3-cyano-7-methoxy-quinolin-6-yl]-amide]
% T/C [1, 6]: 20%
% T/C [1, 7]: 12%
% T/C [1, 8]: 14%
% T/C [1, 9]: 16%
% T/C [1, 10]: 15%
% T/C [1, 11]: 8%
% T/C [1, 12]: 12%
% T/C [1, 13]: 17%

Compound: Cc1ccccc1Nc1c(C#N)cnc2ccccc12
gastric (H+/K+)-ATPase inhibitory activity [2]: inhibitory activity at high concentrations

Compound: CCCCOc1cc2ncc(C#N)c(Nc3cccc(Br)c3)c2cc1OCCCC [Example 305, 4(3-Bromophenylamino)-6,7-di-n-butoxy-3-quinolinecarbonitrile]
KDR IC50 [3]: 30 µg/mL

IC50 [4]: > 100 µM
Compound: 4-(3-Bromophenylamino)-6,7-di-methoxymethyl-3-quinolinecarbonitrile [Example 325]

Compound: COc1cc2ncc(C#N)c(Nc3ccc(F)c(Cl)c3)c2cc1NC(=O)C=CCN1CCOCC1 [Example 205, 4-Morpholin-4-yl-but-2-enoic acid [4-(3-chloro-4-fluoro-phenylamino)-3-cyano-7-methoxy-quinolin-6-yl]-amide]
% T/C [1, 6]: 30%
% T/C [1, 7]: 25%
% T/C [1, 8]: 38%
% T/C [1, 9]: 61%
% T/C [1, 10]: 23%
% T/C [1, 11]: 19%
% T/C [1, 12]: 23%
% T/C [1, 13]: 29%

KDR IC50 [3]: 30 µg/mL
Compound: CCN(CC)CC=CC(=O)Nc1cc2c(Nc3ccc(F)c(Br)c3)c(C#N)cnc2cc1OC [Example 209, 4Diethylamino-but-2-enoic acid [4(3-bromo-4-fluoro-phenylamino)-3-cyano-7-methoxy-quinolin-6-yl]-amide]

KDR IC50 [3]: 30 µg/mL
Compound: COc1ccc2ncc(C#N)c(Nc3ccc(Cl)cc3F)c2c1 [Example 283, 4-(4-Chloro-2-fluoro-phenylamino)-6-methoxy-quinoline-3-carbonitrile]

Compound: C=C(CN1CCOCC1)C(=O)Nc1ccc2ncc(C#N)c(Nc3cccc(Br)c3)c2c1 [Example 171, N-{4-[(3-Bromophenyl)amino]-3-cyano-6-quinolinyl}-2-morpholin-4-ylmethyl-2-propenamide]
IC50 [4]: 100 µM

IC50 [4]: 70 µM
Compound: COCCOc1cc2ncc(C#N)c(Nc3cccc(Br)c3)c2cc1OCCOC [Example 311, 4-[(3-Bromophenyl)amino]-6,7-bis(2-methoxyethoxy)-3-quinolinecarbonitrile]

IC50 [5]: 0.03 µM
Compound: CN(C)CC=CC(=O)Nc1ccc2ncc(C#N)c(Nc3cccc(Br)c3)c2c1 [Example 99, 4-Dimethylamino-but-2-enoic acid [4-(3-bromo-phenylamino)-3-cyano-quinolin-6-yl]-amide]

KDR IC50 [3]: 30 µg/mL
Compound: COc1ccc2c(Nc3ccc(Cl)cc3F)c(C#N)cnc2c1 [Example 307, 4-(4-Chloro-2-fluorophenylamino)-7-methoxy-3-quinolinecarbonitrile]

IC50 [5]: 0.1 µM
Compound: CCN(CC)CC=CC(=O)Nc1ccc2ncc(C#N)c(Nc3cccc(Br)c3)c2c1 [Example 100, 4-Diethylamino-but-2-enoic acid [4-(3-bromo-phenylamino)-3-cyano-quinolin-6-yl]-amide]

KDR IC50 [3]: 30 µg/mL
Compound: CCOc1cc2ncc(C#N)c(Nc3cccc(Br)c3)c2cc1NC(=O)C=CCN(C)C [Example 216, 4-Dimethylamino-but-2-enoic acid [4-(3-bromo-phenylamino)-3-cyano-7-ethoxy-quinolin-6-yl]-amide]
% T/C [1, 14]: 14%
% T/C [1, 15]: 12%
% T/C [1, 16]: 17%
% T/C [1, 17]: 19%
% T/C [1, 18]: 6%
% T/C [1, 19]: 6%
% T/C [1, 20]: 12%
% T/C [1, 21]: 21%

Compound: CCOc1cc2[nH]cc(C#N)c(=O)c2cc1OCC [Example 252, 1,4-Dihydroquinoline-6,7-diethoxy-4-oxo-3-carbonitrile]
IC50 [4]: 100 µM

Inhibition of Cancer Cell Growth as Measured by Cell Number (IC50) (HL60): > 1.00 µg/mL
Compound: COc1cc2ncc(C#N)c(Nc3cccc(C#N)c3)c2cc1OC [Example 45, 4-[(3-Cyanophenyl)amino]-6,7-dimethoxy-3-quinolinecarbonitrile]

IC50 [4]: 100 µM
Compound: C=CC(=O)Nc1cc(CN(C)C)c2ncc(C#N)c(Nc3cccc(Br)c3)c2c1 [Example 111, N-{4-[(3-Bromophenyl)amino]-3-cyano-8-dimethylaminomethyl-6-quinolinyl}-2-propenamide]

KDR IC50 [3]: 30 µg/mL
Compound: CCOc1cc2ncc(C#N)c(Nc3cccc(Br)c3)c2cc1NC(=O)C=CCN(CC)CC [Example 217, 4-Diethylamino-but-2-enoic acid [4-(3-bromo-phenylamino)-3-cyano-7-ethoxy-quinolin-6-yl]-amide]
% T/C [1, 14]: 25%
% T/C [1, 15]: 36%
% T/C [1, 16]: 51%
% T/C [1, 17]: 56%
% T/C [1, 18]: 30%
% T/C [1, 19]: 33%
% T/C [1, 20]: 43%
% T/C [1, 21]: 42%

KDR IC50 [3]: 30 µg/mL
Compound: COc1ccc2ncc(C#N)c(Nc3ccc(C)c(O)c3)c2c1 [Example 284, 4-(3-Hydroxy-4-methyl-phenylamino)-6-methoxy-quinoline-3-carbonitrile]

Compound: COc1cc2ncc(C#N)c(Nc3ccc(F)c(Br)c3)c2cc1NC(=O)C=CCN(C)C [Example 208, 4-Dimethylamino-but-2-enoic acid [4-(3-bromo-4-fluoro-phenylamino)-3-cyano-7-methoxy-quinolin-6-yl]-amide]
% T/C [1, 14]: 14%
% T/C [1, 15]: 15%
% T/C [1, 16]: 26%
% T/C [1, 17]: 32%
% T/C [1, 18]: 6%
% T/C [1, 19]: 6%
% T/C [1, 20]: 8%
% T/C [1, 21]: 10%

KDR IC50 [3]: 30 µg/mL
Compound: C=CC(=O)Nc1ccc2ncc(C#N)c(Nc3cccc(C#N)c3)c2c1 [Example 160, N-{3-Cyano-4-[(3-cyanophenyl)amino]-6-quinolinyl}-2-propenamide]

KDR IC50 [3]: 30 µg/mL
Compound: N#Cc1cnc2cc(O)ccc2c1Nc1ccc(Cl)cc1F [Example 308, 4-(4-Chloro-2-fluorophenylamino)-7-hydroxy-3-quinolinecarbonitrile]

IC50 [4]: 100 µM
Compound: COc1cc2ncc(C#N)c(Nc3cccc(C(C)=O)c3)c2cc1OC [Example 324, 4(3-acetylphenylamino)-6,7-dimethoxy-3-quinolinecarbonitrile]

IC50 [4]: > 100 µM
Compound: COc1ccc(OC)c2c(Nc3ccc(Cl)cc3F)c(C#N)cnc12 [Example 238, 4-(4-Chloro-2-fluoro-phenylamino)-5.8-dimethoxyquinoline-3-carbonitrile]
